Drawing on publication PMC11556721, “A novel esterase regulates Klebsiella pneumoniae hypermucoviscosity and virulence” (PLOS Pathogens, 2024), this text covers Km and stoichiometry N for 2 molecules.

Test [1] has as its system T1, rKpACE (KpACE, Klebsiella pneumoniae Acetylated CPS Esterase).
T1 construct: signal peptide (1-21) removed; N-terminal 6xHis tag; pET-28a, E. coli BL21(DE3)
The experiment in a line: acetylesterase assay, Michaelis-Menten fit. It is filed as biochemical. As to conditions: pH 7.4.

For test [2], the target named is recombinant KpACE (Klebsiella pneumoniae Acetylated CPS Esterase) (Klebsiella pneumoniae ATCC43816). Briefly: SEC; Superdex 200; rKpACE peak at 14.38 mL (75.6 kDa); predicted monomer 43.1 kDa.

For orientation: Km means the substrate concentration at which the rate is half of its maximum. For the molecule `CC(=O)Oc1ccc2c(C)cc(=O)oc2c1` [4-MU-Ac, 4-methylumbelliferyl acetate], the Michaelis-Menten constant (Km) in test [1] was 160 ± 30 µM.
Usually stoichiometry N stands for the number of molecules, sites or subunits per partner or assembly. For the molecule “recombinant KpACE (Klebsiella pneumoniae Acetylated CPS Esterase) (enzyme)”, the stoichiometry N in test [2] was 2.
